Experiments:
[1] = tested on: poly[d(G-C)2] (DNA, polymer) GC; assay: circular dichroism; conditions: 25 mM NaCl; 10 mM phosphate, pH 7.0; ~100 μM bp DNA; intercalation
[2] = tested on: poly[d(G-C)2] (DNA, polymer) GC; assay: UV melting, 260 nm; conditions: per base
[3] = tested on: poly[d(A-T)2] (DNA, polymer) AT; assay: circular dichroism; conditions: 25 mM NaCl; 10 mM phosphate, pH 7.0; ~100 μM bp DNA; minor groove
[4] = tested on: poly[d(G-C)2] (DNA, polymer) GC; assay: ethidium bromide displacement fluorescence; conditions: apparent, per base pair, ethidium displaced, buffer as in cited literature
[5] = tested on: poly[d(A-T)2] (DNA, polymer) AT; assay: ethidium bromide displacement fluorescence; conditions: apparent; per base pair; ethidium displaced; slightly lower than with poly[d(G-C)2]

## CC[n+]1c(-c2ccccc2)c2cc(N)ccc2c2ccc(N)cc21
[1]
  binding: yes

## CN(C)c1ccc(C(=C2C=CC(=[N+](C)C)C=C2)c2ccc([N+](C)(C)C)cc2)cc1
[2]; compound ratio for methyl green not stated in material
  ΔTm: +5.2 °C

## Cn1cc(NC(=O)c2cc(NC(=O)CN=C(N)N)cn2C)cc1C(=O)NCCC(=N)N
[3]
  binding: yes

## [Cl-].[Cl-].[Cl-].[Cl-].[Cu+2].[Cu+2].c1ccc(CN(Cc2ccc3ccc(CN(Cc4ccccn4)Cc4ccccn4)cc3c2)Cc2ccccn2)nc1
[2]; r = 0.1, biphasic, first derivative transition d1, second transition d2 -1.5 ± 1.2 °C
  ΔTm: -18.5 ± 1.2 °C
[4]
  Kapp: ~ 1 × 10^7 M(bp)^−1
[5]
  binding: yes

— article PMC6212767 (2018)
